The values that follow come from patent US11267825B2 (AICURIS GMBH & CO. KG, priority 2017, dated 2022).

One experiment deals with HBV. The experiment is described as follows: Determination of HBV DNA from the supernatants of HepAD38 cells (anti-HBV activity). The note with it: Hepatitis B virus, read-out: Cell Activity (EC50). It counts as cell-based, hepatitis B virus. The gist of the method:
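HepAD38 cells (60,000/well) were treated with half-log compound dilutions in tetracycline-free medium to induce HBV production. On day 6, HBV DNA was purified from filtered supernatant and quantified by real-time PCR against plasmid standards. EC50 values came from non-linear regression of relative copy numbers, typically from three experiments in triplicate.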

The target in a further experiment is HBV core protein (UniProt P03146). It counts as biochemical. Particulars: read-out: Assembly Activity (IC50); BODIPY-FL labelled core protein, assembly started with NaCl, read after 6 min. The gist of the method: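 Fluorescence-quenching assembly assay using E. coli-expressed core protein 1–149 plus Cys150, labelled with BODIPY-FL maleimide, at 1.0–2.0 μM in 50 mM HEPES pH 7.5, 0.5% DMSO. Assembly started with NaCl to […]; fluorescence (ex 477/em 525 nm) read after 6 min. EC50 by non-linear regression, 8-point 0.5-log dilutions.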
HBV core protein, sequence (P03146 whole entry, looked up): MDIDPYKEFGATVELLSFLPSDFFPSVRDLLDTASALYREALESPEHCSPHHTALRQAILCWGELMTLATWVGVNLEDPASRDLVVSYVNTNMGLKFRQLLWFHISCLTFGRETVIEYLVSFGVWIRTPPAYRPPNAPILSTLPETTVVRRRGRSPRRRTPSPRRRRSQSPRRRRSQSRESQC

Where [1] appears, read: 144 h, HBV DNA in HepAD38 supernatant at day 6.

The structures appear in SMILES notation. Like-named read-outs stand apart in the source and are kept apart here.

In general, EC50 refers to the concentration at which the effect is half-maximal. By IC50 is commonly meant the point on the concentration scale where inhibition reaches its midpoint.

As for `O=C(c1cc2ccccc2[nH]1)N1CCc2nc(NC3CCOCC3)sc2C1` [Example 206, 5-(1H-indole-2-carbonyl)-N-(oxan-4-yl)-4H,5H,6H,7H-[1,3]thiazolo[5,4-c]pyridin-2-amine], in the experiment with HBV (setting [1]), the EC50 is less than 1 µM. The IC50 at HBV core protein is less than 5 µM.

As for `O=C(c1cc2c(Cl)cccc2[nH]1)N1CCc2nc(NCC3CCOC3)sc2C1` (stereo not drawn) [Example 121, 5-(4-chloro-1H-indole-2-carbonyl)-N-[(oxolan-3-yl)methyl]-4H,5H,6H,7H-[1,3]thiazolo[5,4-c]pyridin-2-amine], the EC50 in the experiment on HBV (setting [1]) was less than 1 µM. At HBV core protein, the IC50 is less than 5 µM.

Take `O=C(Nc1nc2c(s1)CN(C(=O)c1cc3c(C(F)F)cc(F)cc3[nH]1)CC2)C1CCOCC1` [Example 402, N-{5-[4-(difluoromethyl)-6-fluoro-1H-indole-2-carbonyl]-4H,5H,6H,7H-[1,3]thiazolo[5,4-c]pyridin-2-yl}oxane-4-carboxamide]: the EC50 in the experiment on HBV (setting [1]) is less than 1 µM. Besides, the concentration for half-maximal inhibition (IC50) on HBV core protein was less than 5 µM.

Take `Cc1cc(F)cc2[nH]c(C(=O)N3CCc4nc(N)sc4C3)cc12` [Example 169, 5-(6-fluoro-4-methyl-1H-indole-2-carbonyl)-4H,5H,6H,7H-[1,3]thiazolo[5,4-c]pyridin-2-amine]: in the experiment on HBV (setting [1]), the EC50 is less than 1 µM. Besides, the IC50 at HBV core protein is less than 5 µM.

For `CC(O)CNc1nc2c(s1)CN(C(=O)c1cc3ccccc3[nH]1)CC2` (stereo not drawn) [Example 178, 1-{[5-(1H-indole-2-carbonyl)-4H,5H,6H,7H-[1,3]thiazolo[5,4-c]pyridin-2-yl]amino}propan-2-ol], in the experiment on HBV (setting [1]), the EC50 is less than 1 µM. For the same compound, at HBV core protein, the IC50 is less than 5 µM.

As to `O=C(c1cc2c(Cl)cc(F)cc2[nH]1)N1CCc2nc(NCC3CCOC3)sc2C1` (stereo not drawn) [Example 101, 5-(4-chloro-6-fluoro-1H-indole-2-carbonyl)-N-[(oxolan-3-yl)methyl]-4H,5H,6H,7H-[1,3]thiazolo[5,4-c]pyridin-2-amine], the EC50 in the experiment with HBV (setting [1]) was less than 1 µM. On HBV core protein, the IC50 was less than 5 µM.

With `O=C(Nc1nc2c(s1)CN(C(=O)c1cc3ccccc3[nH]1)CC2)C1CCCCO1` (stereo not drawn) [Example 315, N-[5-(1H-indole-2-carbonyl)-4H,5H,6H,7H-[1,3]thiazolo[5,4-c]pyridin-2-yl]oxane-2-carboxamide], the EC50 in the experiment on HBV (setting [1]) was less than 1 µM. Besides, on HBV core protein, the IC50 lay within 5 to 10 µM.

In the case of `Nc1nc2c(s1)CN(C(=O)c1cc3ccc(Cl)c(Cl)c3[nH]1)CC2` [Example 148, 5-(6,7-dichloro-1H-indole-2-carbonyl)-4H,5H,6H,7H-[1,3]thiazolo[5,4-c]pyridin-2-amine], in the experiment on HBV (setting [1]), the concentration giving a half-maximal response (EC50) was 1 to 10 µM. In addition, at HBV core protein, the IC50 was less than 5 µM.

Take `Cc1ccc(F)c2[nH]c(C(=O)N3CCc4nc(NCC5CCOC5)sc4C3)cc12` (stereo not drawn) [Example 114, 5-(7-fluoro-4-methyl-1H-indole-2-carbonyl)-N-[(oxolan-3-yl)methyl]-4H,5H,6H,7H-[1,3]thiazolo[5,4-c]pyridin-2-amine]: the EC50 in the experiment with HBV (setting [1]) is less than 1 µM. Also, the IC50 at HBV core protein is 5 to 10 µM.

With `O=C(c1cc2ccccc2[nH]1)N1CCc2nc(NCC3CCOC3)sc2C1` (stereo not drawn) [Example 91, 5-(1H-indole-2-carbonyl)-N-[(oxolan-3-yl)methyl]-4H,5H,6H,7H-[1,3]thiazolo[5,4-c]pyridin-2-amine], in the experiment with HBV (HePAD38, 144 h), the EC50 was less than 1 µM. Besides, the IC50 on HBV core protein was less than 5 µM.

As for `CCc1cc(F)cc2[nH]c(C(=O)N3CCc4nc(NC[C@H]5CCOC5)sc4C3)cc12` [Example 329, 5-(4-ethyl-6-fluoro-1H-indole-2-carbonyl)-N-{[(3R)-oxolan-3-yl]methyl}-4H,5H,6H,7H-[1,3]thiazolo[5,4-c]pyridin-2-amine], the EC50 in the experiment on HBV (setting [1]) is less than 1 µM. The 50% inhibitory concentration (IC50) at HBV core protein was less than 5 µM.

As to `Nc1nc2c(s1)CN(C(=O)c1cc3c(Br)ccc(O)c3[nH]1)CC2` [Example 93, 2-{2-amino-4H,5H,6H,7H-[1,3]thiazolo[5,4-c]pyridine-5-carbonyl}-4-bromo-1H-indol-7-ol], in the experiment on HBV (setting [1]), the EC50 was less than 100 µM. Also, the IC50 on HBV core protein is less than 100 µM.
